The results in this text go back to ChEMBL document CHEMBL4396958, “Anti-inflammatory phenylpropanoid glycosides from the fruits of Forsythia suspensa” (Bioorg Med Chem Lett, 2019).

Assay [1] concerns Macrophage. The experiment in a line: Inhibition of TNFalpha expression in LPS-induced macrophages (unknown origin) at 10 uM incubated for 24 hrs by ELISA relative to control. The assay is classed as functional.
In assay [2] the test system is Macrophage. The experiment in a line: Inhibition of TNFalpha expression in LPS-induced macrophages (unknown origin) incubated for 24 hrs by ELISA. The assay is classed as functional, cell-based.

Molecules are shown by their SMILES.

Take `C[C@@H]1C[C@H]2[C@@H]3CCC4=CC(=O)C=C[C@]4(C)[C@@]3(F)[C@@H](O)C[C@]2(C)[C@@]1(O)C(=O)CO` [DEXAMETHASONE]: testing at 10 µM in the assay on Macrophage [1] gave an inhibition of 82.5%. In the assay with Macrophage [2], the IC50 – broadly, the concentration needed to halve the response being measured – was found to be 0.134 µM.

Turning to `O=C(/C=C/c1ccc(O)cc1)OC[C@H]1O[C@@H](Oc2ccc(/C=C/C(=O)OC[C@H]3OC(O)[C@H](O)[C@@H](O)[C@@H]3O)cc2O)[C@H](O)[C@@H](O)[C@@H]1O` (some centres undefined), 10 µM produced 98.3% inhibition in the assay with Macrophage [1]. Moreover, the half-inhibitory concentration (IC50) with Macrophage [2] is 1.05 µM.
